This passage reports melting point results from a melting point compilation (Tetko et al.; mined from patent text by program, amines drawn as free bases though some values may be those of a salt).

Some results are limits rather than exact numbers.

On to `COCn1c(-c2nccs2)c(Cl)c2cccc(NS(=O)(=O)c3cccs3)c21`, for which the melting point was 128 to 129 °C. As for `CC(C)S(=O)(=O)c1snc(OC[Si](C)(C)C)c1C#N`, the melting point lay in the range of 98 to 99 °C.

In turn, `Cc1noc(NS(=O)(=O)c2ccccc2-c2ccc(-c3ncco3)cc2CN(C)C(=O)c2ccc(F)cc2)c1C` gave a melting point of 125 to 135 °C. Take `c1cn2ccnc2c(N2CCOCC2)n1`: the melting point was 127 °C.

For the molecule `COC(=O)c1c(C)nc2ccc(Br)cc2c1NCc1ccccc1`, the melting point is 89 °C. With `CN[C@@H](CC(C)C)C(=O)O`, the melting point fell in the range of 101 to 103 °C. As for `O=C(O)CCN1C(=O)CSC1=S`, the figure is 155 to 156 °C. The molecule `COC1=C(Br)C(=O)O/C1=C\c1ccccc1C(F)(F)F` displayed a melting point of 136 to 138 °C. `COc1cn(-c2ccc(-c3cnn(C)c3)cc2F)nc(-c2ccnn2-c2ccccc2)c1=O` returned a melting point of 195 to 197 °C. `Clc1ncccc1-c1nnsc1-c1cccnc1Cl` registered a melting point of 146 to 148 °C. On to `COc1nc(C)nc(NC(=O)NS(=O)(=O)c2ccccc2OCC(Cl)CCl)n1` (stereo unspecified), for which the melting point lay in the range of 117 to 118 °C. Consider `CCN1C(=O)C(C)(C)C(=O)N(C)c2cc(CN(CCn3ccc4oc(C)c(C)c4c3=O)Cc3cc(C)nn3C)ccc21`, for which the melting point was in the range of 148 to 150 °C. `OCc1ncn(CCCc2ccc(OCc3coc(/C=C/c4ccccc4)n3)cc2)c1CO` came in with a melting point of 146 to 148 °C. `NC(=O)c1cc2c(Oc3ccc(C(=O)N4CCOCC4)cc3)cncc2s1` returned a melting point of more than 260 °C. As for `CCOc1cc(O)nc(N(C)C)n1`, the figure is 194 to 195 °C. The value for `CC(C)(CNc1ccnc2cc(Cl)ccc12)NCc1ccncc1` was 157 to 159 °C; that for `COC(OC)C1CN=C(c2cc3sc(C)c(N(C)S(=O)(=O)c4cccs4)c3[nH]2)S1` (stereo unspecified) was 185 °C; that for `CCCCCCCCCOC(=O)Oc1ccc(C(=O)O)cc1` was 118 to 120 °C. `CCOC(=O)Cc1csc(-c2cccc(O)c2)n1` registered a melting point of 95.5 to 97.2 °C. `CCOC(=O)Nc1cccc(Nc2c3cccc(C)c3nc3c(C(=O)NCCN(C)C)cccc23)c1C`: the melting point fell in the range of 182 to 183 °C. The value for `CCOC(=O)c1cc(=O)c2c(C(C)C)cccc2[nH]1` was 176 to 178 °C; that for `CCOc1nc(N2CCN(C(=O)CCC(=O)O)CC2)nc(N2CCS(=O)CC2)c1[N+](=O)[O-]` was 198 to 200 °C. Molecule `CCOC(=O)c1c(C)nn(-c2ccccc2N)c1C` gave a melting point of 59 to 61 °C. Consider `N#Cc1ccc(Oc2ccc(-c3ccc(Oc4ccc(C#N)c(C#N)c4)cc3)cc2)cc1C#N`, for which the melting point lay in the range of 230 to 232 °C. Molecule `CCSc1nc(-c2ccc(O)cc2)cn1C` yielded a melting point of 210 °C. `CCOC(=O)c1sc(NC(=O)c2ccc(C#N)cc2)nc1C` yielded a melting point of 293 to 295 °C. In the case of `COc1ccc(-c2cnc(C3(c4ccc(OC)c(OC)c4)NCCc4c3[nH]c3ccccc43)nc2)cc1OC` (stereo unspecified), the melting point was 184 to 186 °C. For the molecule `CCOC(=O)c1cc2cccc(O)c2[nH]1`, the melting point lay within 197 to 199 °C. Molecule `COC1=CC(=O)OC1=C(COC(C)=O)C(C)C(C)=O` (stereo unspecified) returned a melting point of 54 to 56 °C. As for `CCSC(=O)OCOC(=O)COc1nc(Cl)c(Cl)cc1Cl`, the figure is 70 to 71 °C; as for `CCOC(=O)C(Cc1ccc(S)cc1)(NC(C)=O)C(=O)OCC`, 125 to 128 °C. In turn, `CCCCCn1c2c(c3ccc(OC)cc31)CN(S(=O)(=O)c1cccc3c(N(C)C)cccc13)CC2` registered a melting point of 71 to 72 °C. For `CCC(Cl)C(=O)NC(C)=O` (stereo unspecified), the melting point was 51 to 53 °C. As for `CC1=Nc2ccccc2N(Cc2ccccc2)C(=O)C1C/C=C/c1ccccc1` (stereo unspecified), the figure is 152 to 154 °C; as for `CNc1nc(-c2ccc(OCCCn3ccnc3)cc2)no1`, 154 to 155 °C. For the molecule `COC(=O)CC(C)C1CCC2C3CC=C4CC(O)CC(O)C4(C)C3CCC12C` (stereo unspecified), the melting point was in the range of 144 to 146 °C.
